Measured values: PubChem BioAssay AID264 (DTP/NCI, 2004)
Where “and” joins values, the source holds several entries; their conditions need not be identical. Identical values can stand only once. Inconclusive results are not listed.

Test system: nude mice, LX-1 lung xenograft intrarenal, tumor weight T/C
Assay: NCI In Vivo Anticancer Drug Screen. Data for tumor model Human Lung LX-1 Xenograft (intrarenal inoculation) in NU/NU Swiss (nude) mice
Conditions: endpoint: mean tumor weight change, higher = larger tumour
In short: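 Compound-treated mice carrying transplanted tumors were compared with vehicle-treated controls. Tumor size was the measured end point, and the value is the treated-group measurement divided by the control-group measurement (T/C).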

[1] = dose: 300.0 mg/kg/injection, schedule: Q04DX003 (sc), vehicle: Klucel (hydroxypropylcellulose) (HPC)
[2] = dose: 600.0 mg/kg/injection, schedule: Q04DX003 (sc), vehicle: Klucel (hydroxypropylcellulose) (HPC)
[3] = dose: 300.0 mg/kg/injection, schedule: Q04DX003 (sc), vehicle: saline with Tween-80
[4] = dose: 600.0 mg/kg/injection, schedule: Q04DX003 (sc), vehicle: saline with Tween-80
[5] = dose: 1200.0 mg/kg/injection, schedule: Q04DX003 (sc), vehicle: saline with Tween-80
[6] = dose: 50.0 mg/kg/injection, schedule: Q01DX010 (sc), vehicle: saline
[7] = dose: 100.0 mg/kg/injection, schedule: Q01DX010 (sc), vehicle: saline
[8] = dose: 100.0 mg/kg/injection, schedule: Q01DX010 (sc), vehicle: Klucel (hydroxypropylcellulose) (HPC)
[9] = dose: 2400.0 mg/kg/injection, schedule: Q04DX003 (sc), vehicle: saline with Tween-80
[10] = dose: 12.5 mg/kg/injection, schedule: Q01DX010 (sc), vehicle: Klucel (hydroxypropylcellulose) (HPC)
[11] = dose: 25.0 mg/kg/injection, schedule: Q01DX010 (sc), vehicle: Klucel (hydroxypropylcellulose) (HPC)
[12] = dose: 200.0 mg/kg/injection, schedule: Q01DX010 (sc), vehicle: Klucel (hydroxypropylcellulose) (HPC)

In the case of `Cc1ccc(NCCN(C)C)c2c(=O)c3cc(O)ccc3sc12`, the T/C (dose: 75.0 mg/kg/injection, schedule: Q04DX003 (sc), vehicle: Klucel (hydroxypropylcellulose) (HPC)) is reported as 97 % of control, the T/C (dose: 150.0 mg/kg/injection, schedule: Q04DX003 (sc), vehicle: Klucel (hydroxypropylcellulose) (HPC)) is reported as 68 % of control and the T/C [1] is reported as 72 % of control. For the same compound, the T/C [2] was 84 % of control.
In the case of `CSC(SC)=C1C(=O)NC(=O)NC1=O`, the T/C (dose: 150.0 mg/kg/injection, schedule: Q04DX003 (sc), vehicle: suspension in saline) is reported as 68 % of control, the T/C (dose: 300.0 mg/kg/injection, schedule: Q04DX003 (sc), vehicle: suspension in saline) is reported as 102 % of control and the T/C (dose: 600.0 mg/kg/injection, schedule: Q04DX003 (sc), vehicle: suspension in saline) is reported as 42 % of control.
In the case of `C[n+]1c(/C=N/NC(N)=S)ccc2ccccc21`, the T/C [3] is reported as 93 % of control, the T/C [4] is reported as 101 % of control and the T/C [5] is reported as 102 % of control.
In the case of `C[Si](C)(C)O/C=C1/CCOC1=O`, the T/C (dose: 50.0 mg/kg/injection, schedule: Q04DX003 (sc), vehicle: suspension in saline) is reported as 115 % of control, the T/C (dose: 100.0 mg/kg/injection, schedule: Q04DX003 (sc), vehicle: suspension in saline) is reported as 122 % of control and the T/C (dose: 200.0 mg/kg/injection, schedule: Q04DX003 (sc), vehicle: suspension in saline) is reported as 107 % of control. The T/C (dose: 400.0 mg/kg/injection, schedule: Q04DX003 (sc), vehicle: suspension in saline) was 106 % of control.
In the case of `CO[C@H](C(=O)[C@@H](O)[C@@H](C)O)[C@@H]1Cc2cc3cc(OC4CC(OC5CC(O)C(O)C(C)O5)C(O)C(C)O4)c(C)c(O)c3c(O)c2C(=O)[C@H]1OC1CC(OC2CC(OC3CC(C)(O)C(O)C(C)O3)C(O)C(C)O2)C(O)C(C)O1` (stereo partly specified), the T/C (dose: 0.25 mg/kg/injection, schedule: Q01DX010 (sc), vehicle: saline) is reported as 120 % of control, the T/C (dose: 0.25 mg/kg/injection, schedule: Q04DX003 (sc), vehicle: saline) is reported as 76 % of control and the T/C (dose: 0.5 mg/kg/injection, schedule: Q04DX003 (sc), vehicle: saline) is reported as 87 % of control. For the same compound, the T/C (dose: 0.75 mg/kg/injection, schedule: Q04DX003 (sc), vehicle: saline) was 101 % of control, the T/C (dose: 1.0 mg/kg/injection, schedule: Q04DX003 (sc), vehicle: saline) was 96 % of control and the T/C (dose: 1.5 mg/kg/injection, schedule: Q04DX003 (sc), vehicle: saline) was 78 % of control. The T/C (dose: 2.0 mg/kg/injection, schedule: Q01DX010 (sc), vehicle: saline) was -51 % of control, the T/C (dose: 2.0 mg/kg/injection, schedule: Q04DX003 (sc), vehicle: saline) was 20 % of control and the T/C (dose: 3.0 mg/kg/injection, schedule: Q04DX003 (sc), vehicle: saline) was 40 % of control.
For `OCC12COCN1COC2`, the T/C (dose: 75.0 mg/kg/injection, schedule: Q04DX003 (sc), vehicle: saline) was 102 % of control and the T/C (dose: 150.0 mg/kg/injection, schedule: Q04DX003 (sc), vehicle: saline) was 115 % of control.
`CN(CO)c1nc(N(C)CO)nc(N(C)CO)n1` was tested, and the T/C (dose: 25.0 mg/kg/injection, schedule: Q01DX010 (sc), vehicle: saline) was 92 % of control, the T/C [6] was 57 % of control and the T/C [7] was 49 % of control.
`COc1cc(O)c2c(O)c3c(c4c2c1[C@]1(C4)C(C)=CCCC1(C)C)[C@H](O)[C@@]1(O)CC(=O)C(C(N)=O)=C(O)[C@@]1(O)C3=O` was tested, and the T/C [3] was 55 % of control, the T/C [4] was 58 % of control and the T/C [5] was 42 % of control.
In the case of `O=C1C(=O)c2ccccc2C(O)=C1CC=C(Cl)Cl`, the T/C (dose: 25.0 mg/kg/injection, schedule: Q01DX010 (sc), vehicle: water) is reported as 255 % of control, the T/C (dose: 50.0 mg/kg/injection, schedule: Q01DX010 (sc), vehicle: water) is reported as 95 % of control and the T/C (dose: 100.0 mg/kg/injection, schedule: Q01DX010 (sc), vehicle: water) is reported as 117 % of control. For the same compound, the T/C (dose: 200.0 mg/kg/injection, schedule: Q01DX010 (sc), vehicle: water) was 158 % of control.
In the case of `C[N+](C)(C)c1cc2c(nn1)Nc1ccccc1S2`, the T/C [8] is reported as 89 % of control.
In the case of `CCC(=O)Sc1ccccc1C(=O)Nc1ccc(Cl)cc1`, the T/C [3] is reported as 97 % of control, the T/C [4] is reported as 91 % of control and the T/C [9] is reported as 98 % of control.
In the case of `CCCCc1ccc(-n2c(C)c(COC(=O)NC)c(COC(=O)NC)c2C)cc1`, the T/C [10] is reported as 111 % of control, the T/C [11] is reported as 92 % of control and the T/C (dose: 50.0 mg/kg/injection, schedule: Q01DX010 (sc), vehicle: Klucel (hydroxypropylcellulose) (HPC)) is reported as 100 % of control. For the same compound, the T/C [8] was 104 % of control.
`COC1CC(C)C(OC)c2cc(O)cc(c2O)NC(=O)/C(C)=C/C=C\C(C)C(OC(N)=O)/C(C)=C\C(C)C1OC` (stereo unspecified) was tested, and the T/C (dose: 25.0 mg/kg/injection, schedule: Q04DX003 (sc), vehicle: saline + alcohol) was 86 % of control, the T/C (dose: 50.0 mg/kg/injection, schedule: Q04DX003 (sc), vehicle: saline + alcohol) was 93 % of control and the T/C (dose: 100.0 mg/kg/injection, schedule: Q04DX003 (sc), vehicle: saline + alcohol) was 82 % of control.
For `Oc1cc2c3c(c1)c1cc4c(cc1c[n+]3CC2)OCO4`, the T/C (dose: 25.0 mg/kg/injection, schedule: Q04DX003 (sc), vehicle: water) was 102 % of control, the T/C (dose: 50.0 mg/kg/injection, schedule: Q04DX003 (sc), vehicle: water) was 124 % of control and the T/C (dose: 100.0 mg/kg/injection, schedule: Q04DX003 (sc), vehicle: water) was 93 % of control. For the same compound, the T/C (dose: 200.0 mg/kg/injection, schedule: Q04DX003 (sc), vehicle: water) was 103 % of control.
For `Nc1nc(-c2ccccc2)c(Br)c(=O)[nH]1`, the T/C [3] was 77 % of control, the T/C [4] was 69 % of control and the T/C [5] was 54 % of control. For the same compound, the T/C [9] was 66 % of control.
`CCc1ccc(C2=C(O)C(=O)C(c3ccccc3)=C(O)C2=O)cc1` was tested, and the T/C [1] was 104 % of control, the T/C [2] was 49 % of control and the T/C (dose: 1200.0 mg/kg/injection, schedule: Q04DX003 (sc), vehicle: Klucel (hydroxypropylcellulose) (HPC)) was 36 % of control.
`Nc1ccccc1N` was tested, and the T/C [11] was 55 % of control, the T/C [8] was 66 % of control and 75 % of control and the T/C [12] was 83 % of control.
In the case of `CC1OC1C(=O)C1(O)C(C)C(O)C23OC2(C(O)c2c(O)cccc2C3=O)C1O` (stereo unspecified), the T/C (dose: 6.0 mg/kg/injection, schedule: Q04DX003 (sc), vehicle: Klucel (hydroxypropylcellulose) (HPC)) is reported as 83 % of control, the T/C (dose: 12.0 mg/kg/injection, schedule: Q04DX003 (sc), vehicle: Klucel (hydroxypropylcellulose) (HPC)) is reported as 98 % of control and the T/C (dose: 24.0 mg/kg/injection, schedule: Q04DX003 (sc), vehicle: Klucel (hydroxypropylcellulose) (HPC)) is reported as 110 % of control. The T/C (dose: 48.0 mg/kg/injection, schedule: Q04DX003 (sc), vehicle: Klucel (hydroxypropylcellulose) (HPC)) was 41 % of control.
`C[PH+](C)C.C[PH+](C)C.[Au]` was tested, and the T/C (dose: 5.0 mg/kg/injection, schedule: Q04DX003 (sc), vehicle: suspension in saline) was 111 % of control, the T/C (dose: 10.0 mg/kg/injection, schedule: Q04DX003 (sc), vehicle: suspension in saline) was 118 % of control and the T/C (dose: 20.0 mg/kg/injection, schedule: Q04DX003 (sc), vehicle: suspension in saline) was 76 % of control.
In the case of `CCCCCC[C@H]([C@H](C)O)n1cnc2c(N)ncnc21`, the T/C [8] is reported as 52 % of control and the T/C [12] is reported as 34 % of control.
In the case of `Nc1cccc(=O)[nH]1`, the T/C (dose: 300.0 mg/kg/injection, schedule: Q04DX003 (sc), vehicle: saline) is reported as 100 % of control, the T/C (dose: 600.0 mg/kg/injection, schedule: Q04DX003 (sc), vehicle: saline) is reported as 110 % of control and the T/C (dose: 1200.0 mg/kg/injection, schedule: Q04DX003 (sc), vehicle: saline) is reported as 105 % of control.
For `C=CC(=O)N1CN(C(=O)C=C)CN(C(=O)C=C)C1`, the T/C (dose: 6.25 mg/kg/injection, schedule: Q01DX010 (sc), vehicle: saline with Tween-80) was 92 % of control, the T/C (dose: 12.5 mg/kg/injection, schedule: Q01DX010 (sc), vehicle: saline with Tween-80) was 110 % of control and the T/C (dose: 25.0 mg/kg/injection, schedule: Q01DX010 (sc), vehicle: saline with Tween-80) was 67 % of control.
`C[C@@H]1C[C@H]2[C@@H]3CCC4=CC(=O)C=C[C@]4(C)[C@@]3(F)[C@@H](O)C[C@]2(C)[C@@]1(O)C(=O)CO` was tested, and the T/C (dose: 1.56 mg/kg/injection, schedule: Q01DX010 (sc), vehicle: Klucel (hydroxypropylcellulose) (HPC)) was 41 % of control, the T/C (dose: 3.13 mg/kg/injection, schedule: Q01DX010 (sc), vehicle: Klucel (hydroxypropylcellulose) (HPC)) was 32 % of control and the T/C (dose: 6.25 mg/kg/injection, schedule: Q01DX010 (sc), vehicle: Klucel (hydroxypropylcellulose) (HPC)) was 33 % of control. For the same compound, the T/C [10] was 26 % of control.
With `O=C(NP(=O)(N1CC1)N1CC1)c1cc(I)ccc1I` the T/C [6] was 73 % of control and the T/C [7] was 54 % of control.
